Reference: patent US20240228499A1, “MASP-2 INHIBITORS AND METHODS OF USE” (Omeros Corporation, priority 2022, published 2024)
pIC50, pKi: −log10 of the molar value.

What was measured:
human a-thrombin = molecular target: T1, human a-thrombin (Homo sapiens, UniProt P00734); assay: Enzymatic assay for thrombin (fluorogenic peptide substrate Boc-VPR-AMC); assay type: biochemical; details: room temperature, 20 mM Hepes pH 7.4, 20 min
T1 construct: enzyme (human a-thrombin (BioPharm® Lab.)); purchased BioPharm Lab
In short: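 Human α-thrombin was incubated with serially diluted compound and fluorogenic substrate Boc-VPR-AMC in 20 mM Hepes pH 7.4, 140 mM NaCl, 0.1% Tween 20 at room temperature. The reaction was stopped after 20 min with 0.1 M acetic acid and fluorescence read. % activity was normalized to DMSO and no-enzyme controls, and IC50 was taken as equivalent to Ki.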

MASP-2 (CCP1-CCP2-SP) = molecular target: T2, MASP-2 (CCP1-CCP2-SP) (Homo sapiens, UniProt O00187); assay: Enzymatic assay for MASP-2 inhibitory activity (fluorogenic substrate); assay type: biochemical; details: room temperature, 20 mM Hepes pH 7.4, 20 min
T2 construct: 15 μL of Enzyme MASP-2 (CCP1-CCP2-SP) in Assay Buffer
In short: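 Human MASP-2 CCP1-CCP2-SP construct with a C2-cleavage-site fluorogenic substrate in 20 mM HEPES pH 7.4, 140 mM NaCl, 0.1% Tween 20, 20 min at room temperature before acetic acid stop. Activity normalised to DMSO and no-enzyme controls; IC50 taken as equivalent to Ki under linear conditions.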

[1] = tested on: Lectin Pathway Activation (LPA) in human serum; assay: Lectin pathway activation (LPA) assay in human serum, C4 deposition on mannan-coated plate; assay type: biochemical; details: 1% pooled human serum, 55 minutes, room temperature
Experimental: A Microtiter ELISA plate (Nunc-Maxi Sorp; Sigma-Aldrich®, USA) was coated with mannan sourced from Saccharomyces cerevisiae (Sigma-Aldrich®, USA) in a coating buffer comprising 33.3 mM Na2CO3 and 166.67 mM NaHCO3. The plates were incubated at room temperature overnight. Subsequently, the plates were blocked with a 5% bovine serum albumin solution (Sigma-Aldrich®, USA) prepared in PBST for 2 hours at room temperature with agitation. Varying concentrations of MASP-2 inhibitors were dispensed onto the empty plate.
To perform the assay, pooled human serum was diluted to 1% in a solution of 20 mM HEPES (pH=7.4), 140 mM NaCl, and 1 mM MgCl2. Then, 40 μl of the diluted human serum was dispensed into each well of the Microtiter ELISA plate and incubated for 55 minutes at room temperature. The C4 deposition on the mannan-coated surface was stopped using an EDTA stop solution (20 mM HEPES, pH=7.4, 140 mM NaCl, and 150 mM EDTA). Subsequently, rabbit anti-Human C4c antibody (Agilent Technologies, USA) prepared in PBST was added, and the plates were incubated at room temperature for 30 minutes with agitation, then washed with PBST, and Goat anti-rabbit IgG(H+L) HRP-conjugated (Southern Biotech®, USA) was added. The plates were again incubated at room temperature for 30 minutes with agitation, and then were washed with PBST. Following this, the Amplex® UltraRed® (Thermo Fischer Sci, USA) substrate solution was added for 16 minutes, followed by the addition of the Amplex® UltraRed® stop solution. The plates' fluorescence was measured using an i3× microplate reader (Molecular Devices, USA) with excitation at 550 nm and emission at 580 nm. The raw data generated from the plate reader was exported to GraphPad Prism® (version 10.0.3), and the non-linear regression curve was generated using the 4-parameter logistic fit equation. All data are reported as pIC50 with a 95% confidence interval.

HSCT-TMA = details: once-weekly treatment, HSCT-TMA patients; cited from earlier work
severe IgA nephropathy = details: cited from earlier work
[2] = tested on: microvascular endothelial cell injury; details: tissue culture model; cited from earlier work

T2 sequence (O00187 287-686 limits assumed): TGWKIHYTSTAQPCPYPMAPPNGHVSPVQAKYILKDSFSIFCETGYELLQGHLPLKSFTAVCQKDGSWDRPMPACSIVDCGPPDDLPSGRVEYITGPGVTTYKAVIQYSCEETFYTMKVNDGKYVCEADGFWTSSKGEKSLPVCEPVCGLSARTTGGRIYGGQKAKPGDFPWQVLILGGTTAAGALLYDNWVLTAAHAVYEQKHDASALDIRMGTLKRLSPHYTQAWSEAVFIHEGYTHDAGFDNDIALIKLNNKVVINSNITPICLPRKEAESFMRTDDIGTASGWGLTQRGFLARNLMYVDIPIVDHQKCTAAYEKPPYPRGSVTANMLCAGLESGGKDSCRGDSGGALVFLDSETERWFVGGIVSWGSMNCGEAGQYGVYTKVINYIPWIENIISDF

| Molecule | pKi (human a-thrombin) | pKi (MASP-2 (CCP1-CCP2-SP)) | pIC50 [1] | response rate based on improvement in laboratory TMA markers and clinical benefit (HSCT-TMA) [%] | tolerability (severe IgA nephropathy; human, in vivo) | urine protein excretion decrease from baseline (severe IgA nephropathy; once-weekly treatment, after 3 years of follow-up) [%] | annualized rate of kidney function decline (severe IgA nephropathy; once-weekly treatment, after 3 years of follow-up, matched external comparator group 8.6) [mL/min/yr] | effect on HSCT-TMA plasma-mediated endothelial damage [2] |
| --- | --- | --- | --- | --- | --- | --- | --- | --- |
| Cc1cc(F)cc(CNc2cnc3n(c2=O)[C@H](C(=O)N[C@H](C)c2ccc(N)nc2)CC3)c1 [Compound 25, (S)—N—((R)-1-(6-aminopyridin-3-yl)ethyl)-3-((3-fluoro-5-methylbenzyl)amino)-4-oxo-4,6,7,8-tetrahydropyrrolo[1,2-a]pyrimidine-6-carboxamide, DI-trifluoroacetate] | < 4.60 | > 6.30 | > 6.30 |  |  |  |  |  |
| narsoplimab |  |  |  | 61 | well tolerated | 38 | 5.2 | reduce HSCT-TMA plasma-mediated endothelial damage |
| Cc1nc(N)ccc1CNC(=O)[C@@H]1CCc2ncc(NCc3cccc(OC(F)F)c3)c(=O)n21 [Compound 75, (S)-N-((6-amino-2-methylpyridin-3-yl)methyl)-3-((3-(difluoromethoxy)benzyl)amino)-4-oxo-4,6,7,8-tetrahydro-pyrrolo[1,2-a]pyrimidine-6-carboxamide] | 5.60 to 6.30 | > 6.30 | > 6.30 |  |  |  |  |  |
| Cc1cc(F)ccc1CNc1cnc2n(c1=O)[C@H](C(=O)NCc1ccc(N)nc1C)CC2 [Compound 62] | 5.00 to 5.60 | > 6.30 | > 6.30 |  |  |  |  |  |
